Source: patent US7407984B2, “Tetraoxaspriro anti-malarials” (Okayama University, priority 2002, dated 2008)
≈ marks a conversion by molar mass, not a printed value. Like-named read-outs stand apart in the source and are kept apart here.

How the values were obtained:
[1] = test system: P. falciparum FCR-3 strain (ATCC30932); test: Growth inhibition screening test of P. falciparum (FCR-3 strain); assay type: cell-based; details: read-out: EC50 (M) P. falciparum FCR-3
Protocol: (§1) A filter-sterilized RPMI1640 medium (pH 7.4) was added with human serum such that the serum made up 10% of the medium, and used in the experiment. P. falciparum were cultured in O2 at a concentration of 5%, CO2 at a concentration of 5% and N2 at a concentration of 90%, at a temperature of 36.5° C. Hematocrit value (ratio of volume of erythrocytes in erythrocyte suspension) was adjusted to be 5%, and initial infection rate of P. falciparum at the beginning of culture was adjusted to be 0.1%. A 24-well plate was used for culture and a medium was replaced everyday, and cultures were transferred at infection rate of 4%. A thin-layer smear was constructed and subjected to Giemsa staining or Diff-Qick staining, and followed by measurement under a microscope (oil immersion, 1000×), and then infection rate of P. falciparum was calculated according to the following formula. Infection rate of P. falciparum (%)={(number of infected erythrocytes)/(total number of erythrocytes)}×100 […]
(§2) Cultured erythrocytes infected with P. falciparum were gathered by centrifugation and washed with a medium containing serum, then noninfected erythrocytes were added, and initial infection rate was adjusted to be 0.3%. Hematocrit value in this case was 3%. […] These samples were dissolved into sterilized water, dimethylformamide (DMF) or dimethylsulfoxide (DMSO), and sample solutions at prescribed concentration were prepared. 5 to 10 μl each of the sample solutions was added to a 24-well culture plate. For each sample, 2 to 3 experiments were conducted. In addition, for control, sterilized water, DMF or DMSO was added by 10 μl/well. […] The culture plate was put into a CO2—O2—N2 (5%, 5%, 90%) incubator and culture was conducted for 72 hours, then a thin-layer smear was constructed for each well, Giemsa staining or Diff-Qick staining was conducted, followed by measurement under a microscope (oil immersion, 1000×), and then infection rates of P. falciparum in a group supplemented with a reagent and in controls were calculated. The growth rate was calculated according to the following formula based on the infection rate of P. falciparum as calculated above. Growth rate (%)={([b]−[a])/([c]−[a])}×100 […]
(§3) a: initial infection rate b: infection rate when sample solution added c: infection rate of a control
(§4) EC50 is a value expressed by molar concentration: when growth rate of control wherein sample solution is not added to a medium of P. falciparum is defined as 100%, EC50 indicates a concentration of a sample wherein infection rate of P. falciparum in control is inhibited by 50% due to the addition of sample solution.

physchem = test: physchem
Text: As to 6-(1,2,6,7-tetraoxaspiro[7.11]nonadecy-4-yl)hexane-1-ole (N251), 5-(1,2,6,7-tetraoxaspiro[7.11]nonadecy-4-yl)pentane-1-carboxylic acid (N251-1), succinic acid mono-[6-(1,2,6,7-tetraoxaspiro[7.11]nonadecy-4-yl)hexyl]ester (N251-2), all obtained in Example 9, and 1,2,6,7-tetraoxaspiro[7.11]nonadecane (N89), artemisinin, artesunate (trade name: Guilin No. 2, Pharmaceutical Factory, Guangxi, China) as comparative examples, solubility to 5% of sodium bicarbonate water and dimethylsulfoxide (DMSO) was measured.

[2] = test system: murine malaria parasites (P. berghei NK65 strain); test: Parasite suppression test using mice infected with murine malaria parasite (4-day suppressive test); assay type: in vivo; details: for ED50 / cure of infected mice / ED90: mice infected with P. berghei NK65; for ED50 / ED90: once a day for 4 days, orally or intraperitoneally in olive oil; for ED50: 50% of parasites suppressed; for cure of infected mice: N251 and N89: with 50 mg/kg; for ED90: 90% of parasites suppressed
[3] = test system: chloroquine-resistant malaria parasite of P. falciparum K-1 strain; test: Growth inhibition screening test of chloroquine-resistant P. falciparum (K-1 strain); assay type: cell-based; details: read-out: EC50 (M) Chloroquine-resistant P. falciparum K1
Protocol: as §1, §2, §3, §4

[4] = test system: mouse breast cancer-derived FM3A cells (F28-7 strain); test: Growth inhibition test of mouse FM3A cells; assay type: cell-based; details: read-out: IC50 (M) Cancer cells of mice FM3A
Protocol: An F28-7 strain, a wild-type strain of mouse breast cancer-derived FM3A cells, was used. Immobilized fetal bovine serum was added to an ES medium such that the serum made up 2% of the medium, and culture was conducted in CO2 at a concentration of 5%, and at 37° C. […] Cells which had been precultured and entered to logarithmic growth phase were diluted to be 5×10^4 cells/ml in the medium. A sample prepared at the time of the measurement of antimalarial activity of P. falciparum was used. […] For each test sample, 2 to 3 experiments were conducted, and wells added with 10 μl each of sterilized water, DMF and DMSO were tested at the same time as controls. Next, a prepared suspension of cultured cells was added, by 990 to 995 μl each, and when medium and the like were added, the final concentration of test samples became 1×10^−4 to 1×10^−6M. By pipetting gently, these substances were uniformly suspended in media.
Based on the counted number of cells, growth rate was calculated by the following formula. Growth rate (%)={([C]−[A])/([B]−[A])}×100
A: the number of cells at the beginning
B: the number of cells in a control after 48 hours
C: the number of cells 48 hours after sample addition
Based on the calculated growth rate, IC50, cell growth inhibitory concentration, was calculated, and cytotoxicity of samples was evaluated as cell growth inhibitory activity.

[5] = test system: P. falciparum versus mouse FM3A cells; test: Assessment of drug efficacy (chemotherapeutic coefficient, selective toxicity against P. falciparum); assay type: cell-based; details: IC50 for mouse FM3A cells ÷ EC50 for P. falciparum (values fit FCR-3)
Protocol: Evaluation of antimalarial activity of samples was conducted on the basis of chemotherapeutic coefficient used as an index of selective toxicity against P. falciparum. Chemotherapeutic coefficient was calculated by the following formula as a ratio of EC50 value of each sample used for P. falciparum to IC50 value of each sample used for mouse FM3A cells, and drug efficacy was assessed based on the calculated values.
Chemotherapeutic coefficient=(IC50 value of the sample for mouse […] cells)÷(EC50 value of the sample for P. falciparum)

[6] = Plasmodium falciparum, FCR-3 strain, 72 hours culture, infection rate by Giemsa or Diff-Qick staining
[7] = Plasmodium berghei, 96 h, read-out: ED50
[8] = Plasmodium falciparum, K1 chloroquine-resistant strain, 72 hours culture
[9] = Mus musculus, FM3A cells, 48 hours culture, cell count, cytotoxicity

## C[C@@H]1CC[C@H]2[C@@H](C)C(=O)O[C@@H]3O[C@@]4(C)CC[C@@H]1[C@]32OO4 [Artemisinin, artemisinin]
[1]; [6]
  EC50: 1e-08 M
physchem
  solubility to DMSO: insoluble
[2]; [7]
  ED50: 6 mg/kg
[2]
  cure of infected mice: Not cured
  ED90: 10.3 mg/kg
[3]; [8]
  EC50: 1.3e-08 M
[4]; [9]
  IC50: 1e-05 M
[5]
  IC50/EC50 Chemotherapeutic coefficient: 1000

## CCN(CC)CCCC(C)Nc1ccnc2cc(Cl)ccc12 (centres unmarked) [Chloroquine, chloroquine]
[1]; Plasmodium falciparum, 72 h
  EC50: 1.8e-08 M
[3]; Plasmodium falciparum, K1, 72 h
  EC50: 1.3e-07 M
[4]; Mus musculus, FM3A, 48 h
  IC50: 3.2e-05 M

## C1CCCCCC2(CCCCC1)OOCCCOO2 [N89, 1,2,6,7-tetraoxaspiro[7.11]nonadecane]
[1]; [6]
  EC50: 2.5e-08 M
physchem
  solubility to DMSO: insoluble
[2]; [7]
  ED50: 12 mg/kg
[2]
  cure of infected mice: All cured
  ED90: 20 mg/kg
[3]; [8]
  EC50: 2.6e-08 M
[4]; [9]
  IC50: 8.2e-06 M
[5]
  IC50/EC50 Chemotherapeutic coefficient: 328

## OCCCCCCC1COOC2(CCCCCCCCCCC2)OOC1 [N251, 6-(1,2,6,7-tetraoxaspiro[7.11]nonadecy-4-yl)hexane-1-ole]
[1]; FCR-3 strain, 72 hours culture, infection rate by Giemsa or Diff-Qick staining
  EC50: 2.3e-08 M
physchem
  solubility to DMSO: insoluble
[2]; ED50 of N251 converted to N89 basis (molar comparison)
  ED50 (mg/kg) on N89 basis: [<7 on N89 basis] mg/kg
[2]; ED90 of N251 converted to N89 basis (molar comparison)
  ED90 (mg/kg) on N89 basis: [13 on N89 basis] mg/kg
[2]
  cure of infected mice: All cured
  ED50: <10 mg/kg
  ED90: 18 mg/kg
[3]; K1 chloroquine-resistant strain, 72 hours culture
  EC50: 2e-08 M
[4]; FM3A cells, 48 hours culture, cell count, cytotoxicity
  IC50: 8e-06 M
[5]
  IC50/EC50 Chemotherapeutic coefficient: 348

## O=C(O)CCCCCC1COOC2(CCCCCCCCCCC2)OOC1 [N251-1, 5-(1,2,6,7-tetraoxaspiro[7.11]nonadecy-4-yl)pentane-1-carboxylic acid]
physchem; 5% of sodium bicarbonate water
  solubility to 5% of sodium bicarbonate water: 50 mg/mL

## O=C(O)CCC(=O)OCCCCCCC1COOC2(CCCCCCCCCCC2)OOC1 [N251-2, succinic acid mono-[6-(1,2,6,7-tetraoxaspiro[7.11]nonadecy-4-yl)hexyl]ester]
physchem
  solubility to 5% of sodium bicarbonate water: 100 mg/mL

## C[C@H]1[C@H](OC(=O)CCC(=O)O)O[C@@H]2O[C@@]3(C)CC[C@H]4[C@H](C)CC[C@@H]1[C@@]24OO3 [artesunate]
physchem; aqueous buffer
  solubility: 100 mg/mL (≈ 260 mM)
